From patent US20260240200A1, “COMPOSITION COMPRISING AN N-GUANYLAMINO ACID FOR DRINKING WATER APPLICATION” (Evonik Operations GmbH, priority 2023, published 2026)

How the values were obtained:
[1] = Determination of the dissolution time in 10 L tap water, neither stirred nor moved; assay type: physicochemical; details: not stirred or moved
Protocol: The mixture was neither stirred nor moved. After 3 minutes there was no solid mixture at the bottom of the beaker.
A beaker with 10 L tap water was provided and 3 g (25.3 mmol) guanidinoacetic acid (GAA, powder, purchased from Gendone, China) was added. The powder sank to the bottom of the beaker. The mixture was not stirred or moved. After 4 days, no solid material was recognizable any more at the bottom of the beaker.

[2] = 15° C.; cited from earlier work

**Q.** With `N=C(N)NCC(=O)O` [guanidinoacetic acid] as the compound, how does the “dissolution time (no solid material recognizable at the bottom of the beaker)” value [1] read?
**A.** ≤ 4 days

**Q.** And the solubility in water [2]?
**A.** 1 g in 278 ml water
